pEC50: −log10 of the molar value.
Biological target: S1P1 (Homo sapiens (Human), UniProt P21453)
Test: 35S-GTPγS binding, membranes from CHO cells expressing S1P1
Assay type: biochemical
Conditions: 60 min 30° C., read-out: S1P1 GTPgS EC50

Sequence of S1P1 (P21453 whole entry, species assumed): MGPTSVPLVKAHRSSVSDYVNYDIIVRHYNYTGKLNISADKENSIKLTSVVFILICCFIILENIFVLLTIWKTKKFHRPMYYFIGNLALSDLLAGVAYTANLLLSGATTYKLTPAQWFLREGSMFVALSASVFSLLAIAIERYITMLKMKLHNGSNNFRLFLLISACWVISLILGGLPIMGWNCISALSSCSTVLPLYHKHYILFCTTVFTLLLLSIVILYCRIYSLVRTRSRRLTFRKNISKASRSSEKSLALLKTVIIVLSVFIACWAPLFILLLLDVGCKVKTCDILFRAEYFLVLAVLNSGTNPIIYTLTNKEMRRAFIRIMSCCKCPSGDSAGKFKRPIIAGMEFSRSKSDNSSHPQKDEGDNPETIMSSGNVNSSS

| SMILES | pEC50 |
| --- | --- |
| COc1ccc(-c2ccc(-c3nc(-c4ccccc4OC(F)(F)F)no3)cc2C)c(OC)c1 [Compound I56, 5-(2′,4′-dimethoxy-2-methylbiphenyl-4-yl)-3-[2-(trifluoromethoxy)phenyl]-1,2,4-oxadiazole] | 6.52 |
| COCCN(CCOC)c1ccc(-c2nc(-c3ccccc3OC)no2)cc1[N+](=O)[O-] [Compound I52, N,N-bis(2-methoxyethyl)-4-[3-(2-methoxyphenyl)-1,2,4-oxadiazol-5-yl]-2-nitroaniline] | 6.53 |
| COc1ccc(F)cc1-c1noc(-c2ccc(N3C(C)CCC3C)c([N+](=O)[O-])c2)n1 (stereo not shown) [Compound I39, 5-[4-(2,5-dimethylpyrrolidin-1-yl)-3-nitrophenyl]-3-(5-fluoro-2-methoxyphenyl)-1,2,4-oxadiazole] | 6.57 |
| COc1ccccc1-c1noc(-c2ccc(N3CCCCCC3)c([N+](=O)[O-])c2)n1 [Compound I16, 1-{4-[3-(2-methoxyphenyl)-1,2,4-oxadiazol-5-yl]-2-nitrophenyl}azepane] | 6.64 |
| CN(c1ccc(-c2nc(-c3ccccc3OC(F)(F)F)no2)cc1[N+](=O)[O-])C1CCCCC1 [Compound I5, N-cyclohexyl-N-methyl-2-nitro-4-{3-[2-(trifluoromethoxy)phenyl]-1,2,4-oxadiazol-5-yl}aniline] | 6.23 |
| O=[N+]([O-])c1cc(-c2nc(-c3ccccc3OC(F)(F)F)no2)ccc1N1CCCCCC1 [Compound I15, 1-(2-nitro-4-{3-[2-(trifluoromethoxy)phenyl]-1,2,4-oxadiazol-5-yl}phenyl)azepane] | 5.95 |
| COc1ccccc1-c1noc(-c2ccc(-c3c(C)noc3C)c(C)c2)n1 [Compound I50, 5-[4-(3,5-dimethylisoxazol-4-yl)-3-methylphenyl]-3-(2-methoxyphenyl)-1,2,4-oxadiazole] | 6.76 |
| COc1ccccc1-c1noc(-c2ccc(N3CCCC(F)(F)C3)c(N(S(C)(=O)=O)S(C)(=O)=O)c2)n1 [Compound I37, N-dimethanesulfonyl-2-(3,3-difluoropiperidin-1-yl)-5-{3-[2-(methoxy)phenyl]-1,2,4-oxadiazol-5-yl}aniline] | 6.04 |
| Cc1cc(-c2nc(-c3ccccc3OC(F)(F)F)no2)ccc1-c1c(C)noc1C [Compound I49, 5-[4-(3,5-dimethylisoxazol-4-yl)-3-methylphenyl]-3-[2-(trifluoromethoxy)phenyl]-1,2,4-oxadiazole] | 6.72 |
| COc1ccccc1-c1noc(-c2ccc(N3CCOCC3)c(N)c2)n1 [Compound I6, 5-[3-(2-methoxyphenyl)-1,2,4-oxadiazol-5-yl]-2-morpholin-4-ylaniline] | 6.15 |
| O=[N+]([O-])c1cc(-c2nc(-c3ccccc3OC(F)(F)F)no2)ccc1N1CCCC1 [Compound I14, 5-(3-nitro-4-pyrrolidin-1-ylphenyl)-3-[2-(trifluoromethoxy)phenyl]-1,2,4-oxadiazole] | 6.37 |
| COc1ccccc1-c1noc(-c2ccc(N3C(C)CCC3C)c([N+](=O)[O-])c2)n1 (stereo not shown) [Compound I42, 5-[4-(2,5-dimethylpyrrolidin-1-yl)-3-nitrophenyl]-3-(2-methoxyphenyl)-1,2,4-oxadiazole] | 5.90 |
| COCC1CCCN1c1ncc(-c2nc(-c3cc(F)ccc3OC)no2)cc1C (stereo not shown) [Compound I76, 5-[3-(5-fluoro-2-methoxyphenyl)-1,2,4-oxadiazol-5-yl]-2-[2-(methoxymethyl)pyrrolidin-1-yl]-3-methylpyridine] | 6.28 |
| COc1ccc(F)cc1-c1noc(-c2ccc(-c3cccnc3C)c(C)c2)n1 [Compound I73, 3-{4-[3-(5-fluoro-2-methoxyphenyl)-1,2,4-oxadiazol-5-yl]-2-methylphenyl}-2-methylpyridine] | 6.47 |
| COc1ccc(F)cc1-c1noc(-c2ccc(-c3ccccc3C)c(C(=O)O)c2)n1 [Compound I79, 4-[3-(5-fluoro-2-methoxyphenyl)-1,2,4-oxadiazol-5-yl]-2′-methylbiphenyl-2-carboxylic acid] | 6.18 |
| COc1ccc(F)cc1-c1noc(-c2ccc(N3CCCCC3C)nc2)n1 (stereo not shown) [Compound I75, 5-[3-(5-fluoro-2-methoxyphenyl)-1,2,4-oxadiazol-5-yl]-2-(2-methylpiperidin-1-yl)pyridine] | 5.93 |
| CC1CCC(C)N1c1ccc(-c2nc(-c3ccccc3OC(F)(F)F)no2)cc1[N+](=O)[O-] (stereo not shown) [Compound I38, 5-[4-(2,5-dimethylpyrrolidin-1-yl)-3-nitrophenyl]-3-[2-(trifluoromethoxy)phenyl]-1,2,4-oxadiazole] | 5.35 |
| CCOc1ccccc1-c1noc(-c2ccc(N3CCCCC3)c([N+](=O)[O-])c2)n1 [Compound I7, 1-{4-[3-(2-ethoxyphenyl)-1,2,4-oxadiazol-5-yl]-2-nitrophenyl}piperidine] | 6.60 |
| COc1ccc(-c2ccc(-c3nc(-c4ccccc4OC)no3)cc2C)c(OC)c1 [Compound I47, 5-(2′,4′-dimethoxy-2-methylbiphenyl-4-yl)-3-(2-methoxyphenyl)-1,2,4-oxadiazole] | 5.92 |

The next compounds have a higher pEC50 than those just listed; values first:

| pEC50 | SMILES |
| --- | --- |
| 7.57 | COc1ccccc1-c1noc(-c2ccc(-c3ccccc3OC)c(C)c2)n1 [Compound I40, 5-(2′-methoxy-2-methylbiphenyl-4-yl)-3-(2-methoxyphenyl)-1,2,4-oxadiazole] |
| 7.41 | CS(=O)(=O)Nc1cc(-c2nc(-c3ccccc3OC(F)(F)F)no2)ccc1N1CCCC(F)(F)C1 [Compound I43, N-(2-(3,3-difluoropiperidin-1-yl)-5-{3-[2-(trifluoromethoxy)phenyl]-1,2,4-oxadiazol-5-yl}phenyl)methanesulfonamide] |
| 7.10 | O=[N+]([O-])c1cc(-c2nc(-c3ccccc3OC(F)(F)F)no2)ccc1N1CCCC(F)(F)C1 [Compound I11, 3,3-difluoro-1-(2-nitro-4-{3-[2-(trifluoromethoxy)phenyl]-1,2,4-oxadiazol-5-yl}phenyl)piperidine] |
| 8.00 | COc1ccc(F)cc1-c1noc(-c2ccc(N3CCCCC3)c(C)c2)n1 [Compound I68, 1-{4-[3-(5-fluoro-2-methoxyphenyl)-1,2,4-oxadiazol-5-yl]-2-methylphenyl}piperidine] |
| 6.89 | Cc1cc(-c2nc(-c3ccccc3OC(F)(F)F)no2)ccc1N1CCOCC1 [Compound I65, 4-(2-methyl-4-{3-[2-(trifluoromethoxy)phenyl]-1,2,4-oxadiazol-5-yl}phenyl)morpholine] |
| 6.88 | COc1ccccc1-c1noc(-c2ccc(N3CCCC3)c([N+](=O)[O-])c2)n1 [Compound I13, 3-(2-methoxyphenyl)-5-(3-nitro-4-pyrrolidin-1-ylphenyl)-1,2,4-oxadiazole] |
| 7.19 | CC(C)Cc1ccc(-c2nc(-c3ccccc3OC(F)(F)F)no2)cc1 [Compound I30, 5-(4-isobutylphenyl)-3-[2-(trifluoromethoxy)phenyl]-1,2,4-oxadiazole] |
| 7.68 | COc1ccccc1-c1noc(-c2ccc(N3CCCCC3)c(C(F)(F)F)c2)n1 [Compound I59, 1-[4-[3-(2-methoxyphenyl)-1,2,4-oxadiazol-5-yl]-2-(trifluoromethyl)phenyl]piperidine] |
| 7.01 | COc1ccccc1-c1noc(-c2ccc(N3CCOCC3)c(C)c2)n1 [Compound I64, 4-{4-[3-(2-methoxyphenyl)-1,2,4-oxadiazol-5-yl]-2-methylphenyl}morpholine] |
| 7.62 | COc1ccccc1-c1noc(-c2ccc(N3CCCCC3)c(C)c2)n1 [Compound I67, 1-{4-[3-(2-methoxyphenyl)-1,2,4-oxadiazol-5-yl]-2-methylphenyl}piperidine] |
| 6.94 | Nc1cc(-c2nc(-c3ccccc3OC(F)(F)F)no2)ccc1N1CCCC(F)(F)C1 [Compound I41, 2-(3,3-difluoropiperidin-1-yl)-5-{3-[2-(trifluoromethoxy)phenyl]-1,2,4-oxadiazol-5-yl}aniline] |
| 7.48 | COc1ccccc1-c1noc(-c2ccc(-c3ccccc3C)c(OC)c2)n1 [Compound I46, 5-(2-methoxy-2′-methylbiphenyl-4-yl)-3-(2-methoxyphenyl)-1,2,4-oxadiazole] |
| 7.24 | O=[N+]([O-])c1cc(-c2nc(-c3ccccc3OC(F)(F)F)no2)ccc1N1CCCCC1 [Compound I31, 1-(2-nitro-4-{3-[2-(trifluoromethoxy)phenyl]-1,2,4-oxadiazol-5-yl}phenyl)piperidine] |
| 6.87 | O=[N+]([O-])c1cc(-c2nc(-c3ccccc3OC(F)(F)F)no2)ccc1N1CCOCC1 [Compound I17, 4-(2-nitro-4-{3-[2-(trifluoromethoxy)phenyl]-1,2,4-oxadiazol-5-yl}phenyl)morpholine] |
| 7.07 | COCCN(CCOC)c1ccc(-c2nc(-c3cc(F)ccc3OC)no2)cc1[N+](=O)[O-] [Compound I51, 4-[3-(5-fluoro-2-methoxyphenyl)-1,2,4-oxadiazol-5-yl]-N,N-bis(2-methoxyethyl)-2-nitroaniline] |
| 7.55 | COc1ccc(F)cc1-c1noc(-c2ccc(N3CCOCC3)c(C)c2)n1 [Compound I66, 4-{4-[3-(5-fluoro-2-methoxyphenyl)-1,2,4-oxadiazol-5-yl]-2-methylphenyl}morpholine] |
| 7.24 | COc1ccccc1-c1noc(-c2ccc(-c3ccccc3C(F)(F)F)c(C)c2)n1 [Compound I24, 3-(2-methoxyphenyl)-5-[2-methyl-2′-(trifluoromethyl)biphenyl-4-yl]-1,2,4-oxadiazole] |
| 7.41 | Cc1cc(-c2nc(-c3ccccc3OC(F)(F)F)no2)ccc1N1CCCCC1 [Compound I58, 1-(2-methyl-4-{3-[2-(trifluoromethoxy)phenyl]-1,2,4-oxadiazol-5-yl}phenyl)piperidine] |
